Data reported in ChEMBL document CHEMBL1201862, “PubChem BioAssay data set” (2004).
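Exposure lasted 48 hours, with cells grown in 96-well plates and compounds tested at five concentrations. GI50 marks 50% less growth.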 Calls of active or inactive are those of the source. Rule as the data show it: active = GI50 up to about 1.1 µM and inactive = higher.

Legend:
Assay in all cases: NCI-60 cell line screen, 48 h
A549 = system: A549
CCRF-CEM = system: CCRF-CEM
DMS-114 = system: DMS-114
HOP-62 = system: HOP-62
HT-29 = system: HT-29
LOX IMVI = system: LOX IMVI
OVCAR-3 = system: OVCAR-3
OVCAR-8 = system: OVCAR-8
SK-MEL-28 = system: SK-MEL-28
SK-MEL-2 = system: SK-MEL-2
SK-MEL-5 = system: SK-MEL-5
SK-OV-3 = system: SK-OV-3
SNB-75 = system: SNB-75
SR = system: SR
U-251 = system: U-251
UACC-257 = system: UACC-257
UACC-62 = system: UACC-62

Measured: GI50

COC(=O)C1=C(SC)SC2(C(=O)OC)C3C=C(C)C4C(N13)C42C(=O)OC (centres undefined)
inactive: A549 > 100 µM | CCRF-CEM > 100 µM | DMS-114 > 100 µM | HOP-62 > 100 µM | HT-29 > 100 µM | LOX IMVI > 100 µM | OVCAR-3 > 100 µM | OVCAR-8 > 100 µM | SK-MEL-28 > 100 µM | SK-MEL-2 > 100 µM | SK-MEL-5 83.6 µM | SK-OV-3 > 100 µM | SNB-75 > 100 µM | SR > 100 µM | U-251 > 100 µM | UACC-257 > 100 µM | UACC-62 > 100 µM

O=C1O/C(=C(/c2ccc(Cl)cc2)c2nc3ccccc3[nH]2)C(O)=C1c1ccc(Cl)cc1
inactive: A549 2.4 µM | CCRF-CEM 1.89 µM | DMS-114 1.24 µM | HOP-62 1.8 µM | HT-29 2.7 µM | LOX IMVI 2.44 µM | OVCAR-3 2.38 µM | OVCAR-8 2.82 µM | SK-MEL-28 3.85 µM | SK-OV-3 2.86 µM | SNB-75 2.69 µM | SR 1.92 µM | U-251 2.56 µM | UACC-257 2.03 µM | UACC-62 2.21 µM

Cc1c2[nH]c3ccc(Br)cc3c2c(C)c2nccc(O)c12
inactive: A549 10.2 µM | CCRF-CEM 7.35 µM | DMS-114 17.7 µM | HOP-62 13.1 µM | HT-29 14.4 µM | LOX IMVI 15.5 µM | OVCAR-3 14.6 µM | OVCAR-8 20.7 µM | SK-MEL-28 16.9 µM | SK-MEL-2 17.5 µM | SK-MEL-5 22.3 µM | SNB-75 25.8 µM | SR 12.1 µM | UACC-257 16.4 µM

COc1cc2c(cc1OC)C(C#N)(Cc1ccccc1)N(C(=O)c1ccccc1)C=C2 (centres undefined)
inactive: CCRF-CEM 35.6 µM | DMS-114 17.6 µM | HOP-62 51.5 µM | HT-29 60.8 µM | LOX IMVI > 100 µM | OVCAR-3 > 100 µM | OVCAR-8 65.8 µM | SK-MEL-28 > 100 µM | SK-MEL-2 > 100 µM | SK-MEL-5 26 µM | SK-OV-3 75.3 µM | SNB-75 70.6 µM | SR 45.7 µM | U-251 > 100 µM | UACC-257 50.6 µM | UACC-62 31.3 µM

COC1=CC(O)(CC(N)=O)c2ccccc2C1=O (centres undefined)
inactive: A549 > 100 µM | CCRF-CEM > 100 µM | DMS-114 > 100 µM | HOP-62 > 100 µM | HT-29 > 100 µM | LOX IMVI > 100 µM | OVCAR-3 > 100 µM | OVCAR-8 > 100 µM | SK-MEL-28 > 100 µM | SK-MEL-2 > 100 µM | SK-MEL-5 > 100 µM | SK-OV-3 > 100 µM | SNB-75 > 100 µM | SR > 100 µM | U-251 > 100 µM | UACC-257 > 100 µM | UACC-62 > 100 µM

CCOC(=O)Nc1ccc(S(=O)(=O)I)cc1.CCOC(=O)Nc1ccc(S(=O)(=O)I)cc1.CNC(=O)N=O.NC(=O)OCCCl
inactive: A549 > 100 µM | CCRF-CEM 74.8 µM | DMS-114 > 100 µM | HOP-62 46.7 µM | HT-29 69 µM | LOX IMVI > 100 µM | OVCAR-8 > 100 µM | SK-MEL-28 67 µM | SK-MEL-2 43.6 µM | SK-MEL-5 > 100 µM | SK-OV-3 > 100 µM | SNB-75 21.9 µM | SR > 100 µM | U-251 > 100 µM | UACC-257 74.6 µM | UACC-62 73.6 µM

COc1cc(/C=C2/C(=O)N(C(=O)OCc3ccccc3)C(Cc3cc(OC)c(OC)c(C)c3OC)C(=O)N2Cc2ccccc2)c(OC)c(C)c1OC (centres undefined)
inactive: A549 > 100 µM | DMS-114 54.6 µM | HOP-62 > 100 µM | HT-29 > 100 µM | LOX IMVI > 100 µM | OVCAR-3 48.8 µM | OVCAR-8 > 100 µM | SK-MEL-28 > 100 µM | SK-MEL-2 87.3 µM | SK-MEL-5 19.4 µM | SK-OV-3 > 100 µM | SNB-75 > 100 µM | SR 41.1 µM | U-251 33.1 µM | UACC-257 9.48 µM | UACC-62 > 100 µM

COc1cc2c(c(OC)c1OC)-c1[nH]ncc1CC2
inactive: A549 > 100 µM | CCRF-CEM > 100 µM | DMS-114 > 100 µM | HOP-62 > 100 µM | HT-29 > 100 µM | LOX IMVI > 100 µM | OVCAR-3 > 100 µM | OVCAR-8 > 100 µM | SK-MEL-28 > 100 µM | SK-MEL-2 > 100 µM | SK-MEL-5 > 100 µM | SK-OV-3 > 100 µM | SNB-75 > 100 µM | SR > 100 µM | U-251 > 100 µM | UACC-257 > 100 µM | UACC-62 > 100 µM

C/C(C=O)=C1\C(O)C[C@]1(C)C1CC(C)(C)CC1O (some centres undefined)
inactive: A549 > 100 µM | CCRF-CEM 26.7 µM | DMS-114 39.1 µM | HOP-62 > 100 µM | HT-29 > 100 µM | LOX IMVI > 100 µM | OVCAR-3 28.8 µM | OVCAR-8 > 100 µM | SK-MEL-28 > 100 µM | SK-MEL-2 > 100 µM | SK-MEL-5 > 100 µM | SR 47 µM | U-251 > 100 µM | UACC-257 > 100 µM

CN(C)c1ccc(N=O)c(O)c1.CN(C)c1ccc(N=O)c(O)c1.[SiH4]
inactive: A549 12.4 µM | CCRF-CEM 4.35 µM | DMS-114 3.72 µM | HOP-62 23 µM | HT-29 6.67 µM | LOX IMVI 5.92 µM | OVCAR-3 3.71 µM | OVCAR-8 12.9 µM | SK-MEL-28 13.2 µM | SK-MEL-5 11.1 µM | SK-OV-3 20.7 µM | SNB-75 12.7 µM | SR 11 µM | U-251 8.09 µM | UACC-257 14 µM | UACC-62 8.49 µM

COc1cc(/C=C2\C(=O)N(C(=O)Cc3ccccc3)N=C2C)cc(OC)c1OC
inactive: A549 > 100 µM | CCRF-CEM > 100 µM | DMS-114 > 100 µM | HOP-62 > 100 µM | HT-29 > 100 µM | LOX IMVI > 100 µM | OVCAR-3 > 100 µM | OVCAR-8 > 100 µM | SK-MEL-28 > 100 µM | SK-MEL-2 > 100 µM | SK-MEL-5 > 100 µM | SNB-75 > 100 µM | SR > 100 µM | UACC-257 > 100 µM

COc1ccc(C(=O)O/N=C2/CCC/C2=C\c2ccccc2)cc1
inactive: A549 > 100 µM | CCRF-CEM > 100 µM | DMS-114 > 100 µM | HOP-62 > 100 µM | HT-29 > 100 µM | LOX IMVI > 100 µM | OVCAR-3 > 100 µM | OVCAR-8 > 100 µM | SK-MEL-28 > 100 µM | SK-MEL-2 > 100 µM | SK-MEL-5 > 100 µM | SK-OV-3 > 100 µM | SNB-75 > 43.3 µM | SR > 100 µM | U-251 > 70.3 µM | UACC-257 > 100 µM | UACC-62 > 100 µM
